Where two headings read alike, the source gives them in different places.

Type in all cases: cell-based
Test [1] concerns the target T1, CFTR ΔF508 mutant (Homo sapiens, UniProt P13569, DEL508-508).
T1 construct: expressed in transfected cells; host or cells: CFBE41o- (adenoviral transduction)
Put plainly: YFP-halide influx assay for the CFTR-ΔF508 mutation (384 well, FDSS/μCell). The settings on record: CFBE41o- cells, CFTR-ΔF508, 1×D-PBS, fluorescence after 36 seconds. The method, boiled down:
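Potentiator read-out as 1−F/F0, F taken 36 s after iodide addition, EC50 fitted against compound concentration. Cells: CFBE41o- expressing ΔF508 CFTR plus halide-sensitive YFP via adenovirus, rescued by 27 °C for 24 h or 24 h modulator at 37 °C.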

The target of test [2] is T2, CFTR G551D mutant (Homo sapiens, UniProt P13569, G551D).
T2 construct: expressed in transfected cells; host or cells: HEK293 (reverse transfection with plasmid)
T2 sequence (P13569 whole entry G551D): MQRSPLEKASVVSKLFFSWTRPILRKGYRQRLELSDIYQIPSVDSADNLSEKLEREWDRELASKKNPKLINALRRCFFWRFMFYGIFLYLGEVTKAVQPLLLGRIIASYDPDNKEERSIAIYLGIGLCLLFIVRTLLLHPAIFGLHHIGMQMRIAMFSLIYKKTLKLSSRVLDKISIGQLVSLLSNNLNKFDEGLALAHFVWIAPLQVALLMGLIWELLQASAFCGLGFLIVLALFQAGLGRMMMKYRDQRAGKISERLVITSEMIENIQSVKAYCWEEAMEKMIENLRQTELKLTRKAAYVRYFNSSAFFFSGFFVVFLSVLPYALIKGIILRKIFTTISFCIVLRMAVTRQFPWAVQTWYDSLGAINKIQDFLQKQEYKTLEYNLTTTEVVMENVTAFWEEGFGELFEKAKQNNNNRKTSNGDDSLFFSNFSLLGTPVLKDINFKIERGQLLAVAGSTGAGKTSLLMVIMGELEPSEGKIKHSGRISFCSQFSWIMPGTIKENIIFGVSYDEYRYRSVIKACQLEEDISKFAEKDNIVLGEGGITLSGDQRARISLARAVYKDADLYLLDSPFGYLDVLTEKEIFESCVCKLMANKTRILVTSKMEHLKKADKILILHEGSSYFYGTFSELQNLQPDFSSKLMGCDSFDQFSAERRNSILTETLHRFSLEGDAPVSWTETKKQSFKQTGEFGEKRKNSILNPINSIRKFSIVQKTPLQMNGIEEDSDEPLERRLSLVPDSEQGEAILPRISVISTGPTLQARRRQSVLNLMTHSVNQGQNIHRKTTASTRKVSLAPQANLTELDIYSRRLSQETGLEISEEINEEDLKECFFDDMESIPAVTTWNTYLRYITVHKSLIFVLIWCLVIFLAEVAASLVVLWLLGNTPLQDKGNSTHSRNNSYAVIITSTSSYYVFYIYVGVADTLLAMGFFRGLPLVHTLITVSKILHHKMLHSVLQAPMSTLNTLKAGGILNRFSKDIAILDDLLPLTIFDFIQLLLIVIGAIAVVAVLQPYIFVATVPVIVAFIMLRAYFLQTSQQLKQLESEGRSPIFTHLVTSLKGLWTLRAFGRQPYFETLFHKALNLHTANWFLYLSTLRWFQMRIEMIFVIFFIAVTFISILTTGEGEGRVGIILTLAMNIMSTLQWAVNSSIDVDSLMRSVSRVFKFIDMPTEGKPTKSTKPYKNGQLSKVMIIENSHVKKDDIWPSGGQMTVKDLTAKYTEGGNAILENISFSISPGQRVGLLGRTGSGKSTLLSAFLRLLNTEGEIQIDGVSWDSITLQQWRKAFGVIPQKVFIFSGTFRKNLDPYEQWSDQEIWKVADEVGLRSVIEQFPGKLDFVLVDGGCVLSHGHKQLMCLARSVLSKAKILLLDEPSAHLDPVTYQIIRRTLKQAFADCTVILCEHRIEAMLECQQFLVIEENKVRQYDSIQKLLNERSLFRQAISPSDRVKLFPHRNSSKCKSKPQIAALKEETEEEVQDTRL
In words: YFP-halide influx assay for the CFTR-G551D mutation. The settings on record: HEK293 cells, forskolin 10.67 μM. The method, boiled down:
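HEK293 cells reverse-transfected with CFTR G551D and YFP H148Q/I152L/F47L halide sensor, expressed 24 h at 37 °C. Iodide-induced fluorescence quench recorded 7 s after I− injection; response = 1−F/F0, with EC50 from plot against compound concentration.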

Test [3] has as its target T3, CFTR-G178R (Homo sapiens, UniProt P13569, G178R).
T3 construct: expressed in transfected cells
In words: YFP-halide influx assay for the CFTR-G178R. The text has this:
(§1) The YFP halide influx assay measures the functionality of the cystic fibrosis Transmembrane Conductance regulator (CFTR) channels. The assay is used to evaluate the capacity of compounds to increase the channel opening of existing mutant CFTR channels in the membrane. It makes use of the observation that the yellow fluorescent protein (YFP) variant YFP H148Q, I152L, […] has its fluorescence substantially quenched by halide ions like Cl^− and I^−. (Galietta, Haggie, & Verkman, 2001)
(§2) For this purpose, HEK293-cells are seeded in 96 well plates. During seeding, the cells are reverse-transfected with plasmid vectors that direct the expression of the CFTR G551D mutant and of the YFP reporter. Cells are incubated at 37° C., 5% CO2 for 24 hours so as to allow for sufficient expression of the CFTR protein.
(§3) The I^−-induced quenching of fluorescence is recorded immediately after injection of I^− for 7 seconds. The capacity of a compound to increase the channel opening is directly correlated with the decrease in fluorescence, and is expressed as (1-(fluorescence after 7 seconds (F)/fluorescence before injection (F0))) and an EC50 can be derived from a (1-F/F0) vs compound concentration plot.
(§4) Similar YHA assays were developed for other channel gating defective or channel conductance defective CFTR mutants to determine effect of compound on channel activity. Examples of mutants are G178R, G1349D, S549N, R117H, R334W. This assay is also used for additional class I CFTR mutants, including G542X, W1282X; class II mutants including N1303K, and for class III mutants including S1251N.

Test [4] deals with T4, CFTR-G1349D (Homo sapiens, UniProt P13569, G1349D).
T4 construct: expressed in transfected cells
T4 sequence (P13569 whole entry G1349D): as the sequence (P13569 whole entry G551D) above, with D551G, G1349D counted along it
Put plainly: YFP-halide influx assay for the CFTR-G1349D.
Text: as §1, §2, §3, §4

Test [5] concerns the target T5, CFTR-S549N (Homo sapiens, UniProt P13569, S549N).
T5 construct: expressed in transfected cells
Put plainly: YFP-halide influx assay for the CFTR-S549N.
Text: as §1, §2, §3, §4

The target of test [6] is T6, CFTR-R117H (Homo sapiens, UniProt P13569, R117H).
T6 construct: expressed in transfected cells
T6 sequence (P13569 whole entry R117H): as the sequence (P13569 whole entry G551D) above, with R117H, D551G counted along it
In words: YFP-halide influx assay for the CFTR-R117H.
Text: as §1, §2, §3, §4

T1 sequence (P13569 with tags, fused parts or gaps DEL508-508): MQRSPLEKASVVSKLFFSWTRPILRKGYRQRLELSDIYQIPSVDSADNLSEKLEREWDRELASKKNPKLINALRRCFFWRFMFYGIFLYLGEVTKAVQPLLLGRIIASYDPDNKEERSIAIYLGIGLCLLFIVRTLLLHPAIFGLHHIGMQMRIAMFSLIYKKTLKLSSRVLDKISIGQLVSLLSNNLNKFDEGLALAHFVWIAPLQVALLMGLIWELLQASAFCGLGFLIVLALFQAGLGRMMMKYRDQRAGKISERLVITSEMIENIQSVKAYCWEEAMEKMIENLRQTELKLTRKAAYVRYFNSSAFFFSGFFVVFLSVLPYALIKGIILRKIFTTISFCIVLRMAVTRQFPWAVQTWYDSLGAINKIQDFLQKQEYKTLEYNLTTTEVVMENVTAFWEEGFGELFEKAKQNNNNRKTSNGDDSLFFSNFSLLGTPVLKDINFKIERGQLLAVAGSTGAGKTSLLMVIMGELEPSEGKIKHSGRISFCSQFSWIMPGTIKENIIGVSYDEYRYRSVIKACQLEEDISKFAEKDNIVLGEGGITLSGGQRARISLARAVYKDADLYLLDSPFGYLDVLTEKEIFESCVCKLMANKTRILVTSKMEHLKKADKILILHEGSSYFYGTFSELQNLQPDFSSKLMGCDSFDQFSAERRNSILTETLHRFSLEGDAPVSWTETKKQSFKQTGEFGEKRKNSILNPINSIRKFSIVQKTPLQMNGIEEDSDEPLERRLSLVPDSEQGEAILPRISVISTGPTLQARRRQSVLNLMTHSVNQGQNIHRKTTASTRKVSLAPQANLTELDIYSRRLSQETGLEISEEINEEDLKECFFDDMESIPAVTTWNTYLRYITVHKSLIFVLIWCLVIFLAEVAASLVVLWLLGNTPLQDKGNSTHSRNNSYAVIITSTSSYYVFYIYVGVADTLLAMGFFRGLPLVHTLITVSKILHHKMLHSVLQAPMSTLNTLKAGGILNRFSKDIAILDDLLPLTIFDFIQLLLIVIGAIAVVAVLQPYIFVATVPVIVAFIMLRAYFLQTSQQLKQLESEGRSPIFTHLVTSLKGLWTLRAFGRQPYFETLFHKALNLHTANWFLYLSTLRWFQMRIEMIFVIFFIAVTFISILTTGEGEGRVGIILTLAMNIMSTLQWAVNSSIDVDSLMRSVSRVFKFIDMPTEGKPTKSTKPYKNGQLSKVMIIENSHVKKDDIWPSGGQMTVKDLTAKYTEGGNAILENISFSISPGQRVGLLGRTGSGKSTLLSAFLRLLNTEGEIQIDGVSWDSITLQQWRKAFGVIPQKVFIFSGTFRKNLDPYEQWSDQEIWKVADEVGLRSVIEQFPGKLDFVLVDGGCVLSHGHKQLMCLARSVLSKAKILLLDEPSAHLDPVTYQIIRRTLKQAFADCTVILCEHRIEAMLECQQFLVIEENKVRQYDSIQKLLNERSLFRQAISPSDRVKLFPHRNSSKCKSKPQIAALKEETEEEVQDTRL
T5 sequence (P13569 whole entry S549N): as the sequence (P13569 whole entry G551D) above, with S549N, D551G counted along it
T3 sequence (P13569 whole entry G178R): as the sequence (P13569 whole entry G551D) above, with G178R, D551G counted along it

Broadly, the EC50 is the concentration that produces a half-maximal response. Lower therefore signals greater potency. As to `CC(C)(O)C(=O)Nc1sc(S(=O)(=O)c2ccc(C(F)(F)F)cc2F)cc1C(N)=O` [Compound 376, 5-[2-fluoro-4-(trifluoromethyl)phenyl] sulfonyl-2-[(2-hydroxy-2-methyl-propanoyl)amino] thiophene-3-carboxamide], the EC50 in test [1] was found to be 8.07 nM; in test [2] it was 522 nM; in test [3] it was 86.9 nM; in test [4] it was 173 nM; in test [5], 251 nM; in test [6], 138 nM.
For `CC(C)(O)C(=O)Nc1sc(S(=O)(=O)c2ccc(OC(F)(F)F)c(F)c2)cc1C(N)=O` [Compound 377, 5-[3-fluoro-4-(trifluoromethoxy)phenyl] sulfonyl-2-[(2-hydroxy-2-methyl-propanoyl)amino] thiophene-3-carboxamide], the EC50 stood at 40.5 nM in test [1]; 711 nM in test [2]; 241 nM in test [3]; 135 nM in test [4]; 935 nM in test [5]; 779 nM in test [6].
`C[C@@H](CO)C(=O)Nc1sc(S(=O)(=O)c2ccc(OC(F)(F)F)cc2)cc1C(N)=O` [Compound 379, 2-[[(2S)-3-hydroxy-2-methyl-propanoyl]amino]-5-[4-(trifluoromethoxy)phenyl] sulfonyl-thiophene-3-carboxamide]: the EC50 was 16.7 nM in test [1]; 655 nM in test [2]; 75.8 nM in test [3]; 58.6 nM in test [4]; 155 nM in test [5]; 96.7 nM in test [6].
As for `CC(C)(O)C(=O)Nc1sc(S(=O)(=O)c2ccc(OC(F)F)cc2)cc1C(N)=O` [Compound 380, 5-[4-(difluoromethoxy)phenyl] sulfonyl-2-[(2-hydroxy-2-methyl-propanoyl)amino] thiophene-3-carboxamide], the EC50 in test [1] turned out to be 17.6 nM; in test [2], 450 nM; in test [3], 107 nM; in test [4], 276 nM; in test [5] it was 387 nM; in test [6], 144 nM.
As to `CC(CO)C(=O)Nc1sc(S(=O)(=O)c2ccc(Cl)cc2OC(F)(F)F)cc1C(N)=O` (stereo not drawn) [Compound 387, 5-[4-chloro-2-(trifluoromethoxy)phenyl] sulfonyl-2-[(3-hydroxy-2-methyl-propanoyl)amino] thiophene-3-carboxamide], the EC50 in test [1] stood at 22.3 nM; in test [2], 1410 nM; in test [3], 87.6 nM; in test [4] it was 83.6 nM; in test [5] it was 210 nM; in test [6] it was 49.5 nM.
As for `CC(C)(O)C(=O)Nc1sc(S(=O)(=O)c2ccc(C(F)(F)F)nc2)cc1C(N)=O` [Compound 389, 2-[(2-hydroxy-2-methyl-propanoyl)amino]-5-[[6-(trifluoromethyl)-3-pyridyl]sulfonyl] thiophene-3-carboxamide], the EC50 in test [1] was found to be 46.3 nM; in test [2], 813 nM; in test [3], 91.5 nM; in test [4], 204 nM; in test [5] it was 531 nM; in test [6], 247 nM.
Take `CC(C)(O)C(=O)Nc1sc(S(=O)(=O)c2cc(C(F)(F)F)ncc2Cl)cc1C(N)=O` [Compound 390, 5-[[5-chloro-2-(trifluoromethyl)-4-pyridyl]sulfonyl]-2-[(2-hydroxy-2-methyl-propanoyl)amino] thiophene-3-carboxamide]: the EC50 in test [1] came out at 44.1 nM; in test [2], 668 nM; in test [3] it was 103 nM; in test [4], 293 nM; in test [5], 322 nM; in test [6] it was 221 nM.
Consider `CC(C)(O)C(=O)Nc1sc(S(=O)(=O)c2cc(Cl)ccc2OC(F)(F)F)cc1C(N)=O` [Compound 391, 5-[5-chloro-2-(trifluoromethoxy)phenyl] sulfonyl-2-[(2-hydroxy-2-methyl-propanoyl)amino] thiophene-3-carboxamide], for which the EC50 was determined as 14.9 nM in test [1]; 53.2 nM in test [2]; 12.9 nM in test [3]; 25.9 nM in test [4]; 42.1 nM in test [5]; 33.8 nM in test [6].
With `CC(C)(O)C(=O)Nc1sc(S(=O)(=O)c2ccc(C#N)cc2OC(F)(F)F)cc1C(N)=O` [Compound 393, 5-[4-cyano-2-(trifluoromethoxy)phenyl] sulfonyl-2-[(2-hydroxy-2-methyl-propanoyl)amino] thiophene-3-carboxamide], the EC50 in test [1] was 14.8 nM; in test [2] it was 662 nM; in test [3], 56.7 nM; in test [4], 159 nM; in test [5], 256 nM; in test [6], 47.6 nM.
Regarding `CC(C)(O)C(=O)Nc1sc(S(=O)(=O)c2cnc(C(F)(F)F)nc2)cc1C(N)=O` [Compound 394, 2-[(2-hydroxy-2-methyl-propanoyl)amino]-5-[2-(trifluoromethyl)pyrimidin-5-yl]sulfonyl-thiophene-3-carboxamide], the EC50 in test [1] is 354 nM; in test [2] (class symbol), more than 1000 nM; in test [3] it was 3330 nM; in test [4] it was 3330 nM; in test [5] (class symbol) it was more than 1000 nM; in test [6] it was 3320 nM.
Turning to `CC(C)(O)C(=O)Nc1sc(S(=O)(=O)c2cnc(C(F)(F)F)cn2)cc1C(N)=O` [Compound 397, 2-[(2-hydroxy-2-methyl-propanoyl)amino]-5-[5-(trifluoromethyl)pyrazin-2-yl]sulfonyl-thiophene-3-carboxamide], the EC50 amounted to 30.7 nM in test [1]; 1790 nM in test [2]; 417 nM in test [3]; 413 nM in test [4]; 678 nM in test [5]; 259 nM in test [6].
As to `CC(C)(O)C(=O)Nc1sc(S(=O)(=O)c2cc(Cl)ccc2OC(F)F)cc1C(N)=O` [Compound 401, 5-[5-chloro-2-(difluoromethoxy)phenyl] sulfonyl-2-[(2-hydroxy-2-methyl-propanoyl)amino] thiophene-3-carboxamide], the EC50 in test [1] is 6.53 nM; in test [2], 126 nM; in test [3], 105 nM; in test [4], 49.3 nM; in test [5] it was 91.4 nM; in test [6], 86.5 nM.
Take `COc1cc(S(=O)(=O)c2cc(C(N)=O)c(NC(=O)C(C)(C)O)s2)c(OC(F)F)cc1F` [Compound 402, 5-[2-(difluoromethoxy)-4-fluoro-5-methoxy-phenyl] sulfonyl-2-[(2-hydroxy-2-methyl-propanoyl)amino] thiophene-3-carboxamide]: the EC50 was determined as 25.6 nM in test [1]; 1400 nM in test [2]; 248 nM in test [3]; 3330 nM in test [4]; 1020 nM in test [5]; 273 nM in test [6].
As to `CC(C)(O)C(=O)Nc1sc(S(=O)(=O)c2cc(F)c(F)cc2OC(F)F)cc1C(N)=O` [Compound 404, 5-[2-(difluoromethoxy)-4,5-difluoro-phenyl] sulfonyl-2-[(2-hydroxy-2-methyl-propanoyl)amino] thiophene-3-carboxamide], the 50% effective concentration (EC50) amounted to 14.3 nM in test [1]; 553 nM in test [2]; 126 nM in test [3]; 1490 nM in test [4]; 1810 nM in test [5]; 283 nM in test [6].
In the case of `CC(C)(O)C(=O)Nc1sc(S(=O)(=O)c2c(F)cc(F)cc2OC(F)F)cc1C(N)=O` [Compound 405, 5-[2-(difluoromethoxy)-4,6-difluoro-phenyl]sulfonyl-2-[(2-hydroxy-2-methyl-propanoyl)amino] thiophene-3-carboxamide], the EC50 is 19.6 nM in test [1]; 4520 nM in test [2]; more than 1000 nM in test [3]; 3330 nM in test [4]; 1370 nM in test [5]; 155 nM in test [6].

The record behind these values is US9382254B2, “Compounds and pharmaceutical compositions thereof for the treatment of cystic fibrosis” (Galapagos NV, priority 2013, dated 2016).
